The source of these data is patent publication US20210228695A1 (REALTA HOLDINGS, LLC, priority 2018, published 2021).

The conditions of data set [1]: human, in vivo. Here is the method:
A patient with chronic active Epstein-Barr virus disease and hemophagocytic lymphohistiocytosis presented with ceftriaxone-induced hemolytic anemia. The patient had been evaluated in the emergency department for fever and possible sepsis after recently receiving chemotherapy. In the emergency department they received a dose of ceftriaxone (50 mg/kg). The patient had received ceftriaxone on three previous occasions with no history of adverse reaction. Within an hour they developed back pain, tachycardia and tachypnea. Over the next three hours they developed worsening distress, failed continuous positive airway pressure and required endotracheal intubation with mechanical ventilation. They also experienced hypotension requiring fluid resuscitation and a continuous epinephrine infusion.
Four hours later, their hemoglobin had decreased to 6.1 g/dL, followed by a point-of-care hemoglobin of 5.1 g/dL. They received four packed red blood cell transfusions (each 10 mL/kg) within 72 hours, after which, their hemoglobin stabilized at their initial baseline (FIG. 1A). […] There were spherocytes on their peripheral blood smear as well as red blood cell aggregation. On admission, one day later, and five days later, their total bilirubin level was 1.5 mg/dL, 10.7 mg/dL, and 23.1 mg/dL respectively, with 90% being conjugated. […]

The conditions of data set [2]: patients frequently exposed to ceftriaxone; cited from earlier work.
A short description of data set [3]: PIC1 administered to a patient with ceftriaxone-induced hemolysis (Example 2). The class given is in vivo, human. Here is the method:
A patient is tested for possible hemolysis as a result of treatment with ceftriaxone. The patient has an erythrocyte hemoglobin level of 6.5 g/dL, a total bilirubin level of 12.4 mg/dL, and an LDH of 16,500. The patient receives packed red blood cell transfusion, and ceftriaxone is discontinued.
Four hours later, the patient has an erythrocyte hemoglobin level of 7.9 g/dL, a total bilirubin level of 8.4 mg/dL, and an LDH of 10,500, all of which show improvement. […] The bilirubin and LDH levels continue to improve. The patient receives additional packed red blood cell transfusions as needed.

Data set [4] concerns classical complement pathway. The following applies: 0.75 mM PIC1 and ceftriaxone together.
Protocol: The CHUHE assay utilizes human serum and human erythrocytes to measure complement-mediated hemolysis for the specific serum and specific erythrocytes that are co-incubated.
The patient's blood and sera were provided as discarded de-identified samples from residual specimens in the Blood Bank. […] Standard veronal complement buffers were utilized.
The modified CHUHE assay was performed as follows. The patient's sera (0.1 ml) was combined with ceftriaxone (10 μg/ml final concentration) in an ice-water bath for 30 minutes to enhance immune complex formation. This solution was then warmed to 24° C. […] Samples were incubated at 37° C. for one hour, with hemolysis stopped by the addition of 2.0 ml of GVBS-EDTA buffer (veronal-buffered saline with 0.1% gelatin and 10 mM EDTA). Erythrocytes were sedimented, and free hemoglobin was measured by spectrophotometry at 412 nm. Two independent experiments (n=2) were performed. Without wishing to be bound by theory, adaptation of the CHUHE hemolytic assay by adding exogenous ceftriaxone to the patient's serum and erythrocytes allowed for evaluation as to whether the hemolysis was ceftriaxone-initiated.

Read-outs that look alike come from different tables or passages of the source. Ends that are not written are not given here.

Turning to `CO/N=C(\C(=O)N[C@@H]1C(=O)N2C(C(=O)O)=C(CSc3nc(=O)c(=O)[nH]n3C)CS[C@H]12)c1csc(N)n1` [ceftriaxone, reference compound], the total bilirubin level in data set [1] is given as 23.1 mg/dL. In data set [2], the “patients developing anti-ceftriaxone antibodies” value is recorded as 12.5%.
For the molecule “IALILEPICCQERAA-dPEG24 (cysteine pairing not given here) [PIC1]”, the clinical outcome in data set [3] (150 mg/kg PIC1, then daily dose for three days, with transfusions as needed) is reported as “completely recovered from the hemolysis”. Besides, in data set [3] (four hours after 150 mg/kg PIC1, 12.4 mg/dL before), the total bilirubin level stood at 8.4 mg/dL. In data set [3] (four hours after 150 mg/kg PIC1, 6.5 g/dL before), this molecule returned an erythrocyte hemoglobin level of 7.9 g/dL. For the same molecule, in data set [3] (four hours after 150 mg/kg PIC1, 16,500 before), the LDH is given as 10,500. Further, in data set [4], the “hemolysis relative to the no ceftriaxone control” value was “returned hemolysis to the level of the no ceftriaxone control”.
